# Tested on: venous thrombosis
# Assay: venous thrombosis test in rats (venous stasis with hypercoagulation, Wessler technique, factor Xa), oral administration
# Assay type: in vivo
# Details: dose 6 mg/kg, thrombosis induced 2 h after administration, male Wistar rats
# Description: The antithrombotic activity of the compounds according to the invention was studied in vivo in rats by virtue of a test that reproduces a venous thrombosis. The venous thrombosis was induced according to the protocol described in Thromb. Haemost. 1992, 67 (1), 176-179. The activity by oral administration was studied according to the following operating protocol: The experiment is carried out on male Wistar rats, not fasting, weighing 250 to 280 g and divided up into groups, each of 8 to 10 animals. The test products are administered orally (by tube) in solution or in suspension in a solution of methylcellulose (0.5% in water). The concentration of the compounds is calculated such that an amount of solution of 10 ml/kg is absorbed orally. A thrombosis is induced at a time T (between 2 hours and 8 hours) after administration of the product, and the thrombus formed is removed and weighed. In order to induce this thrombosis, a venous stasis with hypercoagulation is produced, according to the technique described by WESSLER (J. Applied Physiol. 1959, 943-946) using, as hypercoagulating agent, a solution of activated factor X (Xa), supplied by the company Biogenic (Montpellier), and having a concentration of 7.5 nKat/kg. The venous stasis is produced exactly 10 seconds after the injection of the hypercoagulating agent. The activity of the compounds tested was verified at various doses, after they were administered. The thrombosis was induced between 2 hours and 8 hours after administration of the compound.
row,SMILES,Activity (%): percentage inhibition of the formation of the thrombus relative to the weight of the thrombus formed in the absence of the compound
1,"O[C@@H]1[C@@H](O)[C@H](Oc2cccc3ocnc23)SC[C@H]1O [Example 16, 4-benzoxazolyl 5-thio-β-D-xylopyranoside]",80%
2,"CC(=O)c1cc2cccc(O[C@@H]3SC[C@@H](O)[C@H](O)[C@H]3O)c2o1 [Example 8, 2-acetyl-7-benzofuranyl 5-thio-β-D-xylopyranoside]",91%
3,"O=C(O)C(F)(F)F.O=C(O)Cc1cn2cccc(O[C@@H]3SC[C@@H](O)[C@H](O)[C@H]3O)c2n1 [Example 43, 8-[(5-thio-β-D-xylopyranosyl)oxy]-imidazo[1,2-α]pyridine-2-acetic acid, salt with trifluoroacetic acid]",53%
4,"O[C@@H]1[C@@H](O)[C@H](Oc2cccn3ncnc23)SC[C@H]1O [Example 39, [1,2,4]triazolo[1,5-a]pyridin-8-yl 5-thio-β-D-xylopyranoside]",100%
5,"Cc1nc2cc(O[C@@H]3SC[C@@H](O)[C@H](O)[C@H]3O)ccc2s1 [Example 12, 2-methyl-5-benzothiazolyl 5-thio-β-D-xylopyranoside]",74%
6,"O[C@@H]1[C@@H](O)[C@H](Oc2cccc3ccoc23)SC[C@H]1O [Example 18, 7-benzofuranyl 5-thio-β-D-xylopyranoside]",62%
7,"Cc1cn2cccc(O[C@@H]3SC[C@@H](O)[C@H](O)[C@H]3O)c2n1 [Example 2, 2-methylimidazo[1,2-α]pyridin-8-yl 5-thio-β-D-xylopyranoside]",94%

# Source: patent US7652032B2, “5-Thioxylopyranose compounds” (Laboratoires Fournier S.A., priority 2007, dated 2010)
